Where “and” joins values, the source holds several entries; their conditions need not be identical. Equal values may be shown once. Where a name gives a salt, the structure may show the parent alone. Read-outs that look alike come from different tables or passages of the source.
Tests used:
PDx-4 models = assay: Proliferation marker Ki67 in PDx-4 tumors; format: in vivo, mice; details: 30, 60 or 120 mg/kg p.o. q.d., four hours after final dose of 56 day study, vs fulvestrant 1 mg/animal qwk
ER = biological target: T1, ER (Homo sapiens, UniProt P03372); assay: FES-PET ER engagement in healthy postmenopausal female subjects; format: in vivo
T1 construct: from tissue; host or cells: uterus and pituitary of living human subjects
T1 sequence (P03372 1-595): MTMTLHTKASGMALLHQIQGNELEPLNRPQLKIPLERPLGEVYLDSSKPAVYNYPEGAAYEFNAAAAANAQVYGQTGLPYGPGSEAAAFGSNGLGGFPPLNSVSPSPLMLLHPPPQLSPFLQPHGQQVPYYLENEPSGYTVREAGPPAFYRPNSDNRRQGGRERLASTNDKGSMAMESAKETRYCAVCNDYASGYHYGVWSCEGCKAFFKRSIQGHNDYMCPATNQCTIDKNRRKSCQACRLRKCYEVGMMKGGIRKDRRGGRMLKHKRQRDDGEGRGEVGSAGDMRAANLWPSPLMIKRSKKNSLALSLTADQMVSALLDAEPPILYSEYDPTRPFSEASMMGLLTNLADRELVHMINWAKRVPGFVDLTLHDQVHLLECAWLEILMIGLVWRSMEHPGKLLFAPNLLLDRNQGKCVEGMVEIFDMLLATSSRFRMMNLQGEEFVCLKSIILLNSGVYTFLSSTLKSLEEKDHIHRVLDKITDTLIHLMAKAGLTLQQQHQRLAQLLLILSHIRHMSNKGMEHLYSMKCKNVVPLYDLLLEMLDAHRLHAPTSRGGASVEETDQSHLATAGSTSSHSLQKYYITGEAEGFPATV
Excerpt: The subjects were 40-75 years old with BMI of 18.0-30 kg/m^2. Subjects had intact uterus. Subjects having evidence of clinically relevant pathology, increased risk of stroke or of history venous thromboembolic events, or use of concomitant medication less than 14 days prior to admission to clinical research center (paracetamol allowed up to 3 days prior) were excluded.

[1] = RAD1901 levels in plasma, tumor and brain of mice implanted with MCF7 cells (LC-MS/MS); format: in vivo; details: for Kp at 40 days / concentration at 40 days: mouse, oral
Excerpt: A similar tumor to plasma ratio was also observed at lower dose levels where tumor concentrations were approximately 20-30 fold higher than in plasma.

MCF-7 intracranial tumor = MCF-7 intracranial tumor xenograft model, survival; format: in vivo, athymic nude mice; details: RAD1901 120 mg/kg daily vs fulvestrant 0.5 mg/animal daily, P<0.0001
Procedure: Female athymic nude mice (Crl:NU(NCr)-Foxnlmu) were used for tumor xenograft studies. Three days prior to tumor cell implantation, estrogen pellets (0.36 mg E2, 60-day release, Innovative Research of America, Sarasota, Fla.) were implanted subcutaneously between the scapulae of all test animals using a sterilized trochar. MCF-7 human breast adenocarcinoma cells were cultured to mid-log phase in RPMI-1640 medium containing 10% fetal bovine serum, 100 units/mL penicillin G, 100 μg/mL streptomycin sulfate, 2 mM glutamine, 10 mM HEPES, 0.075% sodium bicarbonate and 25 µg/mL gentamicin. On the day of tumor cell implant, the cells were trypsinized, pelleted, and resuspended in phosphate buffered saline at a concentration of […] cells/mL. Each test mouse received 1×10^6 MCF-7 cells implanted intracranially.
The endpoint was defined as a mortality or 3× survival of the control group, whichever comes first. Treatment tolerability was assessed by body weight measurements and frequent observation for clinical signs of treatment-related adverse effects. Animals with weight loss exceeding 30% for one measurement, or exceeding 25% for three measurements, were humanely euthanized and classified as a treatment-related death. Acceptable toxicity was defined as a group-mean body weight loss of less than 20% during the study and not more than one treatment-related death among ten treated animals, or 10%. […]

[2] = tested on: patient-derived xenograft (PDx) models; assay: Tumor growth inhibition in PDx models treated with RAD1901 alone; format: in vivo, athymic nude mice; details: PDx models with ER mutations and/or high Her2, RAD1901 60 mg/kg p.o. q.d. 60 days
[3] = 500 mg PO once/day, Day 6, individual subjects 1-4, dihydrochloride

Compound: CCNCCc1ccc(CN(CC)c2cc(OC)ccc2[C@@H]2CCc3cc(O)ccc3C2)cc1 [RAD1901, (6R)-6-(2-(N-(4-(2-(ethylamino)ethyl)benzyl)-N-ethylamino)-4-methoxyphenyl)-5,6,7,8-tetrahydronaphthalen-2-ol dihydrochloride]
- proliferation marker Ki67 (PDx-4 models): rapid decrease of the proliferation marker Ki67
- binding of labelled-estradiol to uterus and pituitary (ER; 200 mg or 500 mg once/day p.o. 6 days): significant reduction
- Mean Bone SUV (ER; [3]): 0.48 and 0.55 and 0.47 and 0.52
- Mean Muscle SUV (ER; [3]): 0.31 (2×) and 0.42 and 0.24
- Mean Uterus SUV (ER; [3]): 0.58 (2×) and 0.33 and 0.41
- post dose FES-PET signal at uterus and pituitary (ER; 500 mg p.o. once a day, six days): no noticeable signal of ER binding
- Brain ([1]; 0.3 mg/kg, 40 days): BLQ
- Brain ([1]; 1 mg/kg, 40 days): BLQ
- Kp at 40 days ([1]; Balb/C-Nude, tumor, lower dose levels, read-out: tumor concentrations higher than in plasma): 20 to 30
- blood-brain barrier penetration ([1]; mice treated for 40 days): able to cross the blood-brain barrier
- Kp at 40 days ([1]; brain, 3 mg/kg, 40 days, read-out: B/P Ratio): 0.78
- Kp at 40 days ([1]; brain, 10 mg/kg, 40 days, read-out: B/P Ratio): 0.36
- Kp at 40 days ([1]; brain, 30 mg/kg, 40 days, read-out: B/P Ratio): 0.53
- Kp at 40 days ([1]; brain, 60 mg/kg, 40 days, read-out: B/P Ratio): 0.6
- concentration at 40 days ([1]; brain, 3 mg/kg, 40 days, read-out: Brain): 7 ng/mL
- concentration at 40 days ([1]; brain, 10 mg/kg, 40 days, read-out: Brain): 14 ng/mL
- concentration at 40 days ([1]; brain, 30 mg/kg, 40 days, read-out: Brain): 72 ng/mL
- concentration at 40 days ([1]; brain, 60 mg/kg, 40 days, read-out: Brain): 201 ng/mL
- concentration at 40 days ([1]; plasma, 0.3 mg/kg, 40 days, read-out: Plasma): 2 ng/mL
- concentration at 40 days ([1]; plasma, 1 mg/kg, 40 days, read-out: Plasma): 3 ng/mL
- concentration at 40 days ([1]; plasma, 3 mg/kg, 40 days, read-out: Plasma): 9 ng/mL
- concentration at 40 days ([1]; plasma, 10 mg/kg, 40 days, read-out: Plasma): 39 ng/mL
- concentration at 40 days ([1]; plasma, 30 mg/kg, 40 days, read-out: Plasma): 137 ng/mL
- concentration at 40 days ([1]; plasma, 60 mg/kg, 40 days, read-out: Plasma): 334 ng/mL
- Kp at 40 days ([1]; tumor, 3 mg/kg, 40 days, read-out: T/P Ratio): 18.8
- Kp at 40 days ([1]; tumor, 10 mg/kg, 40 days, read-out: T/P Ratio): 19.4
- Kp at 40 days ([1]; tumor, 30 mg/kg, 40 days, read-out: T/P Ratio): 28.3
- Kp at 40 days ([1]; tumor, 60 mg/kg, 40 days, read-out: T/P Ratio): 33.3
- Kp at 40 days ([1]; tumor, 60 mg/kg, T/P ratio (RAD1901 level in tumor v. plasma), maximum): ≤ 35
- concentration at 40 days ([1]; tumor, 0.3 mg/kg, 40 days, read-out: Tumor): 11 ng/mL
- concentration at 40 days ([1]; tumor, 1 mg/kg, 40 days, read-out: Tumor): 45 ng/mL
- concentration at 40 days ([1]; tumor, 3 mg/kg, 40 days, read-out: Tumor): 169 ng/mL
- concentration at 40 days ([1]; tumor, 10 mg/kg, 40 days, read-out: Tumor): 757 ng/mL
- concentration at 40 days ([1]; tumor, 30 mg/kg, 40 days, read-out: Tumor): 3880 ng/mL
- concentration at 40 days ([1]; tumor, 60 mg/kg, 40 days, read-out: Tumor): 11100 ng/mL
- Kaplan Meier survival (MCF-7 intracranial tumor): significantly prolonged survival compared to fulvestrant
- tumor growth inhibition [2]: efficacious in inhibiting tumor growth

Source: US20180214393A1, “METHODS FOR TREATING CANCER” (RADIUS PHARMACEUTICALS, INC., priority 2015, published 2018)
